Structures can show the parent of a compound that is named as a salt.

Data set [1] concerns the target T1, human recombinant cathepsin L (Homo sapiens, UniProt P07711).
T1 construct: they were identified as a precursor of human cathepsin L and a product processed therefrom, estimated from these molecular weights; made in house; host or cells: mouse myeloma Sp2/0 cells transformed with pTBN-HCLneo (Sp-HCL26); purified from serum-free culture supernatant on CM-Sephadex C-50 and Mono S
Description: Determination of cathepsin L inhibitory activity. It counts as biochemical. As to conditions: pH 5.5, 37° C., 20 minutes, Z-Phe-Arg-7MCA substrate; read-out: Inhibitory activity potency IC50 (ng/ml) Cathepsin L (converted). Here is the method:
The bioactivities of the compounds of this invention are described below. The compounds [I] or salts thereof have activities of inhibiting cathepsin L and cathepsin B, and of potently inhibiting thiol protease. Their inhibitory activities against cathepsin L were determined by the methods described below.
Determination of cathepsin L inhibitory activity
To 75 μl of a reaction mixture containing 1 ng of human recombinant cathepsin L (as produced in Reference Examples 1 through 7 below), 2 μM of dithiothreitol (hereinafter abbreviated as DTT), 1 mM of ethylenediamine tetraacetate disodium salt, a 0.1M sodium acetate buffer solution (pH 5.5) and various concentrations of test samples, 25 μl of 20 μM benzyloxycarbonyl-L-phenylalanyl-L-arginine-4-methylcoumaryl-7-amide (hereinafter abbreviated as Z-Phe-Arg-7MCA, manufactured by Peptide Institute) was added to initiate the reaction. After incubation at 37° C. for 20 minutes, 100 μl of a reaction stopper solution containing 100 mM sodium monochloroacetate was added. The amount of liberated 4-methyl-7-aminocoumarin was determined at an excitation wavelength of 365 nm and a fluorescence wavelength of 450 nm, using a fluorophotometer (FCA:manufactured by Baxter Travenol). The sample concentration required to cause 50% inhibition was expressed as the IC50 value, with the fluorescence value obtained from the same reaction in the absence of the sample taken as 100%.

Data set [2] has as its system mice. Put plainly: Toxicity study. As to conditions: intravenously or intraperitoneally, 1,000 mg/kg. Format: in vivo. Here is the method:
Compound 4 caused no death in mice when it was intravenously or intraperitoneally administered at 1,000 mg/kg.

Data set [3] has as its system bone resorption as enhanced by PTH (parathyroid hormone). Put plainly: Determination of bone resorption suppressive activity (PTH-stimulated mouse femur culture). It counts as cell-based, female BALB/c mice. As to conditions: 168 h, test compound 10 μg/ml, PTH 1 μM, cultured 7 days. Here is the method:
The compounds [I] or salts thereof of this invention show suppressive action against bone resorption as enhanced by PTH (parathyroid hormone), and the action was determined by method described below. Determination of bone resorption suppressive activity
Femurs were aseptically isolated from female BALB/c mice at 8-10 weeks of age. After the bone marrow cavity was washed with a Ham F12 medium containing 10 weight % thermally inactivated fetal calf serum, 100 unit/ml penicillin G and 100 unit/ml streptomycin (hereinafter referred to as culture broth), each femur was added to 1 ml of the culture broth and precultured for 3 hours at 37° C. in the presence of 5% carbon dioxide and 95% air. Each bone was transferred to 1 ml of the culture broth supplemented with PTH (manufactured by Peptide Institute, Inc., final concentration 1 μM) and the test compound (final concentration 10 μg/ml) and cultured for 7 more days, after which the total calcium content in the culture broth was determined using Calcium E-Test Wako (manufactured by Wako Pure Chemical Industries, Ltd.). The bone resorption suppressive activity of the test compound was calculated using the following equation.
Bone resorption suppressive activity (%)=100×(Cp-Cs)/(Cp-Cc)
Cc: Total calcium content in the culture broth containing neither PTH nor test compound
Cp: Total calcium content in the culture broth containing PTH […]

T1 sequence (P07711 114-333): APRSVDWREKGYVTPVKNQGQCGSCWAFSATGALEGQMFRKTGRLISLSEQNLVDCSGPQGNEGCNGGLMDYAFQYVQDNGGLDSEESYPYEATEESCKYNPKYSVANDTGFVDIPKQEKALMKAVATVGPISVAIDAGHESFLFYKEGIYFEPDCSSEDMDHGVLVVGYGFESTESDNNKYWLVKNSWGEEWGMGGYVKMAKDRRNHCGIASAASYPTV

For the compound `CCN1[C@H](C(=O)O)[C@H]1C(=O)N[C@@H](Cc1ccccc1)C(=O)NCCC(C)C` (stereo partly drawn) [Compound 45, N-[N-[(2S,3S)-N-Ethyl-3-Carboxyaziridine-2-carbonyl]-L-phenylalanyl]isopentylamine Sodium Salt], the IC50 in data set [1] is 0.252 nM.

`CC(C)CCNC(=O)[C@H](Cc1ccccc1)NC(=O)[C@H]1N[C@@H]1C(=O)[O-].[Na+]` [Compound 4, N-[N-[(2S,3S)-3-Carboxyaziridine-2-carbonyl]-L-phenylalanyl]isopentylamine sodium salt]: in data set [2], the death in mice result is on record as “no death”. Further, the IC50 in data set [1] is 13.5 nM.

With `NCCCCNC(=O)[C@H](Cc1ccccc1)NC(=O)[C@H]1N[C@@H]1C(=O)O` [Compound 7, N-[N-[(2S,3S)-3-carboxyaziridine-2-carbonyl]-L-phenylalanyl]-1,4-diaminobutane], the activity at 10 µg/mL in data set [3] was found to be 99%. In addition, the IC50 in data set [1] was 8.61 nM.

Take `CC(C)CCNC(=O)[C@H](Cc1ccccc1)NC(=O)[C@@H]1[C@@H](C(=O)O)N1C` (stereo partly drawn) [Compound 43, N-[N-[(2S,3S)-N-Methyl-3-carboxyaziridine-2-carbonyl]-L-phenylalanyl]isopentylamine Sodium Salt]: in data set [1], the IC50 is 0.522 nM.

Source of the values: patent publication US5668128A, “Aziridine derivatives, their production and use” (Takeda Chemical Industries, Ltd., priority 1994, dated 1997).
